Experimental data taken from publication PMC3933419, “Synthesis and Properties of a Selective Inhibitor of Homeodomain–Interacting Protein Kinase 2 (HIPK2)” (PLoS ONE, 2014).

Tests used:
Experiment in all cases: Kinase panel selectivity profiling
Type in all cases: biochemical
[1] = target: DYRK1A (Homo sapiens, UniProt Q13627)
Description: (§1) The source of HIPK2 and of all of the other protein kinases used for specificity assays is as described elsewhere.
(§2) Conditions for the activity assays of all other protein kinases tested in selectivity experiments are as described or referenced in [9].

[2] = target: JNK1 (Homo sapiens, UniProt P45983); conditions: TBID 1 μM, 125 kinase panel, read-out: % activity of the enzyme
Description: as §1, §2

[3] = target: Aurora A (Homo sapiens, UniProt O14965); conditions: TBID 1 μM, 125 kinase panel, read-out: % activity of the enzyme
Chain of Aurora A (O14965 whole entry): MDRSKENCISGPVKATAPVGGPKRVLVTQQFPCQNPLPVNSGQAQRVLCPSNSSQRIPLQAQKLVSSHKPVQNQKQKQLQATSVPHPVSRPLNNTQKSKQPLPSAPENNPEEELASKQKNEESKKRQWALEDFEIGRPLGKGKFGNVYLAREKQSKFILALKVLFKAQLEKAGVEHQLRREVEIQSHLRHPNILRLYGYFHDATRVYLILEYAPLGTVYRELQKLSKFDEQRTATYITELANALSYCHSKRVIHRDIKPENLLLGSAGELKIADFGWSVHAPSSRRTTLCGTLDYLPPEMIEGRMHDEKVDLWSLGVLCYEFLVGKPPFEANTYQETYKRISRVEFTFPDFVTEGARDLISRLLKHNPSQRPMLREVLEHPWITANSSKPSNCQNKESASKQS
Description: as §1, §2

[4] = target: PIM2 (Homo sapiens, UniProt Q9P1W9); conditions: TBID 1 μM, 125 kinase panel, read-out: % activity of the enzyme
Chain of PIM2 (Q9P1W9 whole entry): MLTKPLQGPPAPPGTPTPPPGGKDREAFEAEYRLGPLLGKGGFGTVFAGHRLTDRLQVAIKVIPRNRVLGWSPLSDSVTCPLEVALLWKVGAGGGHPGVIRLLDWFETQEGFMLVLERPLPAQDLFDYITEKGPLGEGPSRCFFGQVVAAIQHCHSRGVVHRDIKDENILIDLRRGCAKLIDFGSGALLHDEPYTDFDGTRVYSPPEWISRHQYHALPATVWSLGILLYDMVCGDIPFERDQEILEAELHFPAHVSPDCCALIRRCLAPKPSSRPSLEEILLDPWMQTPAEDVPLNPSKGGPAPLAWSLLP
Description: as §1, §2

[5] = target: TIE2 (Homo sapiens, UniProt Q02763); conditions: TBID 1 μM, 125 kinase panel, read-out: % activity of the enzyme
Description: as §1, §2

[6] = target: PKCγ (Homo sapiens, UniProt P05129); conditions: TBID 1 μM, 125 kinase panel, read-out: % activity of the enzyme
Description: as §1, §2

[7] = target: ZAP70 (Homo sapiens, UniProt P43403); conditions: TBID 1 μM, 125 kinase panel, read-out: % activity of the enzyme
Description: as §1, §2

[8] = target: TAK1 (Homo sapiens, UniProt O43318); conditions: TBID 1 μM, 125 kinase panel, read-out: % activity of the enzyme
Description: as §1, §2

[9] = target: CAMKKb (Homo sapiens, UniProt Q96RR4)
Chain of CAMKKb (Q96RR4 whole entry): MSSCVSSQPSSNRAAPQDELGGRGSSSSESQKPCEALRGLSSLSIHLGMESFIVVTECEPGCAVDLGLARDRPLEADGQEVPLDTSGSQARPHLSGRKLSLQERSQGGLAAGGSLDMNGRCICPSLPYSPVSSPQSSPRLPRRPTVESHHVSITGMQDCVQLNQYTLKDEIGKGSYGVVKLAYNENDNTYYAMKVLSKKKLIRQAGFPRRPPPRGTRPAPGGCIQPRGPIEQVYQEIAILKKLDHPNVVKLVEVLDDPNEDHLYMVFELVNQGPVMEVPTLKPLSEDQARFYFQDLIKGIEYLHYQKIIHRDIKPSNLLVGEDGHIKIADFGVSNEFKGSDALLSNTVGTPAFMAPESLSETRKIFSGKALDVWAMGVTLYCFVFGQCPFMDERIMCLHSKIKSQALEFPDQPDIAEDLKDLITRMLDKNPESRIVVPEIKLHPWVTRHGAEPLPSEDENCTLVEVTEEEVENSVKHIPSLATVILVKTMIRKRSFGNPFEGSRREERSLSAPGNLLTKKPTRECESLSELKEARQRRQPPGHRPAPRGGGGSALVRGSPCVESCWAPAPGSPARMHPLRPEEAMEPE
Description: as §1, §2

[10] = target: PAK6 (Homo sapiens, UniProt Q9NQU5); conditions: TBID 1 μM, 125 kinase panel, read-out: % activity of the enzyme
Description: as §1, §2

[11] = target: SmMLCK (Homo sapiens, UniProt Q15746); conditions: TBID 1 μM, 125 kinase panel, read-out: % activity of the enzyme
Description: as §1, §2

[12] = target: IRR (Homo sapiens, UniProt P14616); conditions: TBID 1 μM, 125 kinase panel, read-out: % activity of the enzyme
Description: as §1, §2

[13] = target: MKK1 (Homo sapiens, UniProt Q02750); conditions: TBID 1 μM, 125 kinase panel, read-out: % activity of the enzyme
Description: as §1, §2

[14] = target: PRAK (Homo sapiens, UniProt Q8IW41); conditions: TBID 1 μM, 125 kinase panel, read-out: % activity of the enzyme
Description: as §1, §2

[15] = target: RSK1 (Homo sapiens, UniProt Q15418); conditions: TBID 1 μM, 125 kinase panel, read-out: % activity of the enzyme
Chain of RSK1 (Q15418 whole entry): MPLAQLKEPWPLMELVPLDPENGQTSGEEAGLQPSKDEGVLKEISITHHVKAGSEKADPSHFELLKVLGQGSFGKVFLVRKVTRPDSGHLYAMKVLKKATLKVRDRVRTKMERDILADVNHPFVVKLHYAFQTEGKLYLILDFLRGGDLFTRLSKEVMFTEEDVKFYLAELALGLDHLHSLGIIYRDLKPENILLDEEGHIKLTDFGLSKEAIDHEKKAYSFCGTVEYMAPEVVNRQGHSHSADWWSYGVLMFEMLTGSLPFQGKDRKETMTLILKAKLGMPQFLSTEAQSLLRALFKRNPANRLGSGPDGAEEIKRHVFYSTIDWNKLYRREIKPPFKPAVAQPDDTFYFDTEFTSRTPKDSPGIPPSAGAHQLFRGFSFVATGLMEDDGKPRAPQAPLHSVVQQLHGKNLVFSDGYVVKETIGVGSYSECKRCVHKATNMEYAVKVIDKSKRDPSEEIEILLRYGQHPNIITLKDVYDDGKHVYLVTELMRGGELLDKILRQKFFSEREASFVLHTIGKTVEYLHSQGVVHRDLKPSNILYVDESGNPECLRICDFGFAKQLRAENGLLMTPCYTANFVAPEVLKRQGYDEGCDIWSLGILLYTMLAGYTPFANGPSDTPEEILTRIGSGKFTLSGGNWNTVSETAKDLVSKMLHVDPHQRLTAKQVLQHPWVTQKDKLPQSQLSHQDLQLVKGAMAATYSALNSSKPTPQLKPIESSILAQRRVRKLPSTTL
Description: as §1, §2

[16] = target: LKB1 (Homo sapiens, UniProt Q15831); conditions: TBID 1 μM, 125 kinase panel, read-out: % activity of the enzyme
Description: as §1, §2

[17] = target: STK33 (Homo sapiens, UniProt Q9BYT3); conditions: TBID 1 μM, 125 kinase panel, read-out: % activity of the enzyme
Description: as §1, §2

[18] = target: p38b MAPK (Homo sapiens, UniProt Q15759); conditions: TBID 1 μM, 125 kinase panel, read-out: % activity of the enzyme
Description: as §1, §2

[19] = target: DAPK1 (Homo sapiens, UniProt P53355); conditions: TBID 1 μM, 125 kinase panel, read-out: % activity of the enzyme
Description: as §1, §2

[20] = target: TBK1 (Homo sapiens, UniProt Q9UHD2); conditions: TBID 1 μM, 125 kinase panel, read-out: % activity of the enzyme
Description: as §1, §2

[21] = target: TLK1 (Homo sapiens, UniProt Q9UKI8); conditions: TBID 1 μM, 125 kinase panel, read-out: % activity of the enzyme
Chain of TLK1 (Q9UKI8 whole entry): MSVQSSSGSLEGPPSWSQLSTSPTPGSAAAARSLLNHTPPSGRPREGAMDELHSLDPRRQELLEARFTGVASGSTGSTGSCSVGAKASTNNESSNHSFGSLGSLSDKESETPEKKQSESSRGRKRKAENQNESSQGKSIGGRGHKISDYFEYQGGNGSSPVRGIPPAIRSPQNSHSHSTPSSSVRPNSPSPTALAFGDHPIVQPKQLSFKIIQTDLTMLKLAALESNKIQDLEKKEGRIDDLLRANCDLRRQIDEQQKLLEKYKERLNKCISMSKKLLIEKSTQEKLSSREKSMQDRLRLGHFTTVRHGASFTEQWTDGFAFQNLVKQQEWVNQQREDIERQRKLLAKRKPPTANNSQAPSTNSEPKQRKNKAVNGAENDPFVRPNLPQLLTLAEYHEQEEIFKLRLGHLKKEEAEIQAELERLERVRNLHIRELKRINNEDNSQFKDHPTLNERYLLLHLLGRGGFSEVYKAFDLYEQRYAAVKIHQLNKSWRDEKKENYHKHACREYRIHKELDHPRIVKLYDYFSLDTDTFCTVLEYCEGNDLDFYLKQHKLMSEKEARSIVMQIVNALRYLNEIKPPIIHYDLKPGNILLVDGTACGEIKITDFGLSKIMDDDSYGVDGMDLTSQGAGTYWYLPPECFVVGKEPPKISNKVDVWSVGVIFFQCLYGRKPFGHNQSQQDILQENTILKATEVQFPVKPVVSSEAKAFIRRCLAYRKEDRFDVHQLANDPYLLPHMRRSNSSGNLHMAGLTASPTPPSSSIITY
Description: as §1, §2

[22] = target: PAK4 (Homo sapiens, UniProt O96013); conditions: TBID 1 μM, 125 kinase panel, read-out: % activity of the enzyme
Description: as §1, §2

[23] = target: DYRK3 (Homo sapiens, UniProt O43781); conditions: TBID 1 μM, 125 kinase panel, read-out: % activity of the enzyme
Description: as §1, §2

[24] = target: HIPK1 (Homo sapiens, UniProt Q86Z02); conditions: TBID 1 μM, 125 kinase panel, read-out: % activity of the enzyme
Description: as §1, §2

[25] = target: PAK2 (Homo sapiens, UniProt Q13177); conditions: TBID 1 μM, 125 kinase panel, read-out: % activity of the enzyme
Description: as §1, §2

[26] = target: EF2K (Homo sapiens, UniProt O00418); conditions: TBID 1 μM, 125 kinase panel, read-out: % activity of the enzyme
Description: as §1, §2

[27] = target: CDK2-Cyclin A (Homo sapiens, UniProt P24941); conditions: TBID 1 μM, 125 kinase panel, read-out: % activity of the enzyme
Description: as §1, §2

[28] = target: PLK1 (Homo sapiens, UniProt P53350); conditions: TBID 1 μM, 125 kinase panel, read-out: % activity of the enzyme
Description: as §1, §2

[29] = target: p38d MAPK (Homo sapiens, UniProt O15264); conditions: TBID 1 μM, 125 kinase panel, read-out: % activity of the enzyme
Chain of p38d MAPK (O15264 whole entry): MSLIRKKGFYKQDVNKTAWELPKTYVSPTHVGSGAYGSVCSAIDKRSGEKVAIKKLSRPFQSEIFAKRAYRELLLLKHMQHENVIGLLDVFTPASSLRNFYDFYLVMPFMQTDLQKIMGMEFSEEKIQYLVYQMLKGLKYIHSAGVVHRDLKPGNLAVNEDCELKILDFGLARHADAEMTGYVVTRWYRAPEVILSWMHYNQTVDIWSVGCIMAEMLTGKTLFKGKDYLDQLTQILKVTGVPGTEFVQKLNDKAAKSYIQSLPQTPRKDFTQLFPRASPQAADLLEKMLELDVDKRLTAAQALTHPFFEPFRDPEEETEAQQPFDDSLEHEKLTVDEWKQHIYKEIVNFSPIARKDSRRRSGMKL
Description: as §1, §2

[30] = target: EPH-B4 (Homo sapiens, UniProt P54760); conditions: TBID 1 μM, 125 kinase panel, read-out: % activity of the enzyme
Description: as §1, §2

[31] = target: MLK1 (Homo sapiens, UniProt P80192); conditions: TBID 1 μM, 125 kinase panel, read-out: % activity of the enzyme
Description: as §1, §2

[32] = target: p38a MAPK (Homo sapiens, UniProt Q16539); conditions: TBID 1 μM, 125 kinase panel, read-out: % activity of the enzyme
Description: as §1, §2

[33] = target: EPH-B3 (Homo sapiens, UniProt P54753); conditions: TBID 1 μM, 125 kinase panel, read-out: % activity of the enzyme
Chain of EPH-B3 (P54753 34-998): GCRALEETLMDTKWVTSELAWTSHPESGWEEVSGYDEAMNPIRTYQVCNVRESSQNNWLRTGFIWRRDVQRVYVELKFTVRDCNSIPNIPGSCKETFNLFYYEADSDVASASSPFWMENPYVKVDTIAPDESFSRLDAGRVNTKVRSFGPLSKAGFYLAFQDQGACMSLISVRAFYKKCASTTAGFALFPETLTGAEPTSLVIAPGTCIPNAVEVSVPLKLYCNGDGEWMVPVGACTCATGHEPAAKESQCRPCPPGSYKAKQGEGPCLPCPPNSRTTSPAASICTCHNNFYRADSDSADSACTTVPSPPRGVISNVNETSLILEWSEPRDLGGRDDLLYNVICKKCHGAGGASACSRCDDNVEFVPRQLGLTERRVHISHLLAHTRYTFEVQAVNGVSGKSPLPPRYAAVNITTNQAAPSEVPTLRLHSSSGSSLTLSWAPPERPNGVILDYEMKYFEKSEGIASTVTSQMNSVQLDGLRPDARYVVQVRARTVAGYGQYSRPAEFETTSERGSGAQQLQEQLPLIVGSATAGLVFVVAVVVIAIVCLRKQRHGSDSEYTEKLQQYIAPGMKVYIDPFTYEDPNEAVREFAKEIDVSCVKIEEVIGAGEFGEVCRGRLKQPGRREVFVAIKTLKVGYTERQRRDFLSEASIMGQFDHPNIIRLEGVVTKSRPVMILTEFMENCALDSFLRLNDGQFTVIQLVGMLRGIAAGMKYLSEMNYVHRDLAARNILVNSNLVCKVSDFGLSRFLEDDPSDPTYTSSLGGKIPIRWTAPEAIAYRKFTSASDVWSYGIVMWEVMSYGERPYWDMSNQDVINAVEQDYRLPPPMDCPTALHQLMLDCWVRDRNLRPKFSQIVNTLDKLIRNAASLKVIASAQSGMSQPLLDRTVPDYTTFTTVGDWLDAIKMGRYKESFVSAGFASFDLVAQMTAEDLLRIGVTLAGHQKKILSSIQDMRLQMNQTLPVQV
Description: as §1, §2

[34] = target: CHK1 (Homo sapiens, UniProt O14757); conditions: TBID 1 μM, 125 kinase panel, read-out: % activity of the enzyme
Description: as §1, §2

[35] = target: IRAK4 (Homo sapiens, UniProt Q9NWZ3); conditions: TBID 1 μM, 125 kinase panel, read-out: % activity of the enzyme
Description: as §1, §2

[36] = target: MEKK1 (Homo sapiens, UniProt Q13233); conditions: TBID 1 μM, 125 kinase panel, read-out: % activity of the enzyme
Description: as §1, §2

[37] = target: MSK1 (Homo sapiens, UniProt O75582); conditions: TBID 1 μM, 125 kinase panel, read-out: % activity of the enzyme
Description: as §1, §2

[38] = target: TSSK1 (Homo sapiens, UniProt Q9BXA7); conditions: TBID 1 μM, 125 kinase panel, read-out: % activity of the enzyme
Description: as §1, §2

[39] = target: DYRK2 (Homo sapiens, UniProt Q92630); conditions: TBID 1 μM, 125 kinase panel, read-out: % activity of the enzyme
Description: as §1, §2

[40] = target: BRSK2 (Homo sapiens, UniProt Q8IWQ3); conditions: TBID 1 μM, 125 kinase panel, read-out: % activity of the enzyme
Description: as §1, §2

[41] = target: Aurora B (Homo sapiens, UniProt Q96GD4); conditions: TBID 1 μM, 125 kinase panel, read-out: % activity of the enzyme
Description: as §1, §2

[42] = target: IKKe (Homo sapiens, UniProt Q14164); conditions: TBID 1 μM, 125 kinase panel, read-out: % activity of the enzyme
Description: as §1, §2

[43] = 10 µM TBID, panel of 76 protein kinases, read-out: residual activity
[44] = TBID 1 μM, 125 kinase panel, read-out: % activity of the enzyme

With `O=C1c2c(Br)c(Br)c(Br)c(Br)c2C(=O)N1c1ncc[nH]1` [TBID, 4,5,6,7-Tetrabromo-2-(1H-imidazol-2-yl)isoindoline-1,3-dione] the remaining activity at 10 µM [1, 43] was 72%, the activity at 1 µM [1, 44] was 104% and the activity at 1 µM [2] was 106%. For the same compound, the activity at 1 µM [3] was 101%, the activity at 1 µM [4] was 101% and the activity at 1 µM [5] was 115%. The activity at 1 µM [6] was 117%, the activity at 1 µM [7] was 91% and the activity at 1 µM [8] was 78%. For the same compound, the remaining activity at 10 µM [9, 43] was 34%, the activity at 1 µM [9, 44] was 75% and the activity at 1 µM [10] was 102%. The activity at 1 µM [11] was 103%, the activity at 1 µM [12] was 100% and the activity at 1 µM [13] was 115%. The activity at 1 µM [14] was 95%, the activity at 1 µM [15] was 93% and the activity at 1 µM [16] was 102%. The activity at 1 µM [17] was 111%, the activity at 1 µM [18] was 111% and the activity at 1 µM [19] was 92%. The activity at 1 µM [20] was 108%, the activity at 1 µM [21] was 107% and the activity at 1 µM [22] was 99%. The activity at 1 µM [23] was 101%, the activity at 1 µM [24] was 39% and the activity at 1 µM [25] was 97%. It also gave an activity at 1 µM [26] of 111%, an activity at 1 µM [27] of 98% and an activity at 1 µM [28] of 83%. It also gave an activity at 1 µM [29] of 106%, an activity at 1 µM [30] of 114% and an activity at 1 µM [31] of 83%. It also gave an activity at 1 µM [32] of 88%, an activity at 1 µM [33] of 103% and an activity at 1 µM [34] of 102%. For the same compound, the activity at 1 µM [35] was 101%, the activity at 1 µM [36] was 106% and the activity at 1 µM [37] was 89%. The activity at 1 µM [38] was 109%, the activity at 1 µM [39] was 94% and the activity at 1 µM [40] was 99%. It also gave an activity at 1 µM [41] of 106% and an activity at 1 µM [42] of 85%.
